Experimental data taken from the supplement of paper PMC10307832.

How the values were obtained:
Assay in all cases: relative viability (nuclei count vs DMSO), 5 days (fraction); higher = more cells survive
[1] = test system: SW 1573
Method in brief: (§1)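 Relative viability is defined as nuclei in treated wells over nuclei in vehicle wells. Duplicate plates were run and medians reported. Lung cancer cell lines in 1536-well plates were dosed by pin tool one day after seeding, with one drug or with a fixed anchor-drug dose plus five library-drug doses (not always all listed) in √10 steps, and nuclei were counted after 5 days.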

[2] = test system: NCI-H2342
Method in brief: as §1

[3] = test system: NCI-H647
Method in brief: as §1

[4] = test system: NCI-H522
Method in brief: as §1

[5] = test system: HCC-78
Method in brief: as §1

[6] = test system: HOP-62
Method in brief: as §1

[7] = test system: NCI-H358
Method in brief: as §1

[8] = test system: NCI-H2347
Method in brief: as §1

[9] = test system: NCI-H2126
Method in brief: as §1

[10] = test system: HCC-15
Method in brief: as §1

[11] = test system: PC-3 [JPC-3]
Method in brief: as §1

[12] = test system: NCI-H1915
Method in brief: as §1

[13] = test system: LC-2-ad
Method in brief: as §1

[14] = test system: RERF-LC-KJ
Method in brief: as §1

[15] = test system: A-427
Method in brief: as §1

[16] = test system: LXF-289
Method in brief: as §1

[17] = test system: NCI-H1755
Method in brief: as §1

[18] = test system: NCI-H1734
Method in brief: as §1

[19] = test system: NCI-H1975
Method in brief: as §1

[20] = test system: NCI-H2228
Method in brief: as §1

[21] = test system: SK-LU-1
Method in brief: as §1

Q: Which relative viability ([1]; first compound 0.04 µM) does the source give for `Cc1sc2c(c1C)C(c1ccc(Cl)cc1)=N[C@@H](CC(=O)OC(C)(C)C)c1nnc(C)n1-2` [JQ1] + O=C(CCCCCCC(=O)Nc1ccccc1)NO [Vorinostat] (partner 1 µM) here?
A: Its relative viability is 0.695.

Q: What about the relative viability ([1]; first compound 0.1265 µM) of the same compound?
A: Its relative viability is 0.365.

Q: And the relative viability ([1]; first compound 0.4 µM)?
A: The relative viability was 0.338.

Q: And the relative viability ([1]; first compound 1.265 µM)?
A: Its relative viability is 0.231.

Q: And the relative viability ([1]; first compound 4 µM)?
A: The relative viability was 0.238.

Q: And the relative viability ([2]; first compound 0.04 µM)?
A: Its relative viability is 0.722.

Q: And the relative viability ([2]; first compound 0.1265 µM)?
A: The relative viability was 0.592.

Q: What about the relative viability ([2]; first compound 0.4 µM) of the same compound?
A: The relative viability was 0.87.

Q: What about the relative viability ([2]; first compound 1.265 µM) of the same compound?
A: Its relative viability is 0.73.

Q: What about the relative viability ([2]; first compound 4 µM) of the same compound?
A: The relative viability was 0.714.

Q: And the relative viability ([3]; first compound 0.04 µM)?
A: Its relative viability is 0.615.

Q: What about the relative viability ([3]; first compound 0.1265 µM) of the same compound?
A: Its relative viability is 0.373.

Q: What about the relative viability ([3]; first compound 0.4 µM) of the same compound?
A: The relative viability was 0.406.

Q: And the relative viability ([3]; first compound 1.265 µM)?
A: The relative viability was 0.0648.

Q: And the relative viability ([3]; first compound 4 µM)?
A: The relative viability was 0.062.

Q: What about the relative viability ([4]; first compound 0.04 µM) of the same compound?
A: Its relative viability is 0.984.

Q: What about the relative viability ([4]; first compound 0.1265 µM) of the same compound?
A: Its relative viability is 0.71.

Q: And the relative viability ([4]; first compound 0.4 µM)?
A: Its relative viability is 0.737.

Q: And the relative viability ([4]; first compound 1.265 µM)?
A: The relative viability was 0.497.

Q: What about the relative viability ([4]; first compound 4 µM) of the same compound?
A: Its relative viability is 0.368.

Q: What about the relative viability ([5]; first compound 0.04 µM) of the same compound?
A: Its relative viability is 0.436.

Q: What about the relative viability ([5]; first compound 0.1265 µM) of the same compound?
A: Its relative viability is 0.398.

Q: And the relative viability ([5]; first compound 0.4 µM)?
A: The relative viability was 0.466.

Q: What about the relative viability ([5]; first compound 1.265 µM) of the same compound?
A: The relative viability was 0.312.

Q: And the relative viability ([5]; first compound 4 µM)?
A: Its relative viability is 0.329.

Q: And the relative viability ([6]; first compound 0.04 µM)?
A: The relative viability was 0.641.

Q: What about the relative viability ([6]; first compound 0.1265 µM) of the same compound?
A: The relative viability was 0.553.

Q: And the relative viability ([6]; first compound 0.4 µM)?
A: Its relative viability is 0.305.

Q: What about the relative viability ([6]; first compound 1.265 µM) of the same compound?
A: The relative viability was 0.12.

Q: And the relative viability ([6]; first compound 4 µM)?
A: The relative viability was 0.0858.

Q: What about the relative viability ([7]; first compound 0.04 µM) of the same compound?
A: Its relative viability is 0.662.

Q: And the relative viability ([7]; first compound 0.1265 µM)?
A: Its relative viability is 0.628.

Q: What about the relative viability ([7]; first compound 0.4 µM) of the same compound?
A: The relative viability was 0.533.

Q: And the relative viability ([7]; first compound 1.265 µM)?
A: The relative viability was 0.161.

Q: What about the relative viability ([7]; first compound 4 µM) of the same compound?
A: The relative viability was 0.134.

Q: What about the relative viability ([8]; first compound 0.04 µM) of the same compound?
A: Its relative viability is 0.615.

Q: And the relative viability ([8]; first compound 0.1265 µM)?
A: The relative viability was 0.521.

Q: What about the relative viability ([8]; first compound 0.4 µM) of the same compound?
A: Its relative viability is 0.463.

Q: What about the relative viability ([8]; first compound 1.265 µM) of the same compound?
A: The relative viability was 0.282.

Q: What about the relative viability ([8]; first compound 4 µM) of the same compound?
A: Its relative viability is 0.259.

Q: What about the relative viability ([9]; first compound 0.04 µM) of the same compound?
A: Its relative viability is 0.725.

Q: What about the relative viability ([9]; first compound 0.1265 µM) of the same compound?
A: The relative viability was 0.767.

Q: And the relative viability ([9]; first compound 0.4 µM)?
A: Its relative viability is 0.583.

Q: And the relative viability ([9]; first compound 1.265 µM)?
A: The relative viability was 0.382.

Q: What about the relative viability ([9]; first compound 4 µM) of the same compound?
A: Its relative viability is 0.346.

Q: What about the relative viability ([10]; first compound 0.04 µM) of the same compound?
A: The relative viability was 0.804.

Q: And the relative viability ([10]; first compound 0.1265 µM)?
A: Its relative viability is 0.705.

Q: What about the relative viability ([10]; first compound 0.4 µM) of the same compound?
A: The relative viability was 0.7.

Q: And the relative viability ([10]; first compound 1.265 µM)?
A: The relative viability was 0.424.

Q: And the relative viability ([10]; first compound 4 µM)?
A: Its relative viability is 0.271.

Q: And the relative viability ([11]; first compound 0.04 µM)?
A: The relative viability was 0.816.

Q: What about the relative viability ([11]; first compound 0.1265 µM) of the same compound?
A: The relative viability was 0.716.

Q: And the relative viability ([11]; first compound 0.4 µM)?
A: Its relative viability is 0.67.

Q: And the relative viability ([11]; first compound 1.265 µM)?
A: Its relative viability is 0.537.

Q: And the relative viability ([11]; first compound 4 µM)?
A: Its relative viability is 0.377.

Q: What about the relative viability ([12]; first compound 0.04 µM) of the same compound?
A: The relative viability was 0.508.

Q: And the relative viability ([12]; first compound 0.4 µM)?
A: The relative viability was 0.519.

Q: And the relative viability ([12]; first compound 1.265 µM)?
A: The relative viability was 0.299.

Q: What about the relative viability ([12]; first compound 4 µM) of the same compound?
A: Its relative viability is 0.203.

Q: And the relative viability ([13]; first compound 0.04 µM)?
A: Its relative viability is 0.699.

Q: And the relative viability ([13]; first compound 0.1265 µM)?
A: Its relative viability is 0.396.

Q: What about the relative viability ([13]; first compound 0.4 µM) of the same compound?
A: The relative viability was 0.624.

Q: What about the relative viability ([13]; first compound 1.265 µM) of the same compound?
A: The relative viability was 0.273.

Q: And the relative viability ([13]; first compound 4 µM)?
A: The relative viability was 0.3.

Q: And the relative viability ([14]; first compound 0.04 µM)?
A: Its relative viability is 0.68.

Q: What about the relative viability ([14]; first compound 0.1265 µM) of the same compound?
A: The relative viability was 0.517.

Q: And the relative viability ([14]; first compound 0.4 µM)?
A: Its relative viability is 0.44.

Q: What about the relative viability ([14]; first compound 1.265 µM) of the same compound?
A: Its relative viability is 0.407.

Q: And the relative viability ([14]; first compound 4 µM)?
A: Its relative viability is 0.223.

Q: And the relative viability ([15]; first compound 0.04 µM)?
A: The relative viability was 0.861.

Q: What about the relative viability ([15]; first compound 0.1265 µM) of the same compound?
A: Its relative viability is 0.748.

Q: What about the relative viability ([15]; first compound 0.4 µM) of the same compound?
A: The relative viability was 0.789.

Q: What about the relative viability ([15]; first compound 1.265 µM) of the same compound?
A: Its relative viability is 0.594.

Q: And the relative viability ([15]; first compound 4 µM)?
A: Its relative viability is 0.429.

Q: And the relative viability ([16]; first compound 0.04 µM)?
A: Its relative viability is 0.765.

Q: What about the relative viability ([16]; first compound 0.1265 µM) of the same compound?
A: The relative viability was 0.693.

Q: What about the relative viability ([16]; first compound 0.4 µM) of the same compound?
A: The relative viability was 0.665.

Q: And the relative viability ([16]; first compound 1.265 µM)?
A: The relative viability was 0.582.

Q: And the relative viability ([16]; first compound 4 µM)?
A: The relative viability was 0.577.

Q: And the relative viability ([17]; first compound 0.04 µM)?
A: Its relative viability is 0.822.

Q: And the relative viability ([17]; first compound 0.1265 µM)?
A: Its relative viability is 0.579.

Q: And the relative viability ([17]; first compound 0.4 µM)?
A: Its relative viability is 0.693.

Q: What about the relative viability ([17]; first compound 1.265 µM) of the same compound?
A: Its relative viability is 0.651.

Q: And the relative viability ([17]; first compound 4 µM)?
A: The relative viability was 0.552.

Q: And the relative viability ([18]; first compound 0.04 µM)?
A: Its relative viability is 0.802.

Q: And the relative viability ([18]; first compound 0.1265 µM)?
A: The relative viability was 0.665.

Q: What about the relative viability ([18]; first compound 0.4 µM) of the same compound?
A: Its relative viability is 0.712.

Q: What about the relative viability ([18]; first compound 1.265 µM) of the same compound?
A: Its relative viability is 0.334.

Q: What about the relative viability ([18]; first compound 4 µM) of the same compound?
A: The relative viability was 0.358.

Q: What about the relative viability ([19]; first compound 0.04 µM) of the same compound?
A: Its relative viability is 0.729.

Q: And the relative viability ([19]; first compound 0.1265 µM)?
A: Its relative viability is 0.6.

Q: What about the relative viability ([19]; first compound 0.4 µM) of the same compound?
A: The relative viability was 0.64.

Q: What about the relative viability ([19]; first compound 1.265 µM) of the same compound?
A: Its relative viability is 0.325.

Q: And the relative viability ([19]; first compound 4 µM)?
A: The relative viability was 0.263.

Q: And the relative viability ([20]; first compound 0.04 µM)?
A: The relative viability was 0.605.

Q: And the relative viability ([20]; first compound 0.1265 µM)?
A: Its relative viability is 0.826.

Q: And the relative viability ([20]; first compound 0.4 µM)?
A: Its relative viability is 0.377.

Q: What about the relative viability ([20]; first compound 1.265 µM) of the same compound?
A: Its relative viability is 0.316.

Q: And the relative viability ([20]; first compound 4 µM)?
A: The relative viability was 0.168.

Q: And the relative viability ([21]; first compound 0.04 µM)?
A: Its relative viability is 0.797.

Q: What about the relative viability ([21]; first compound 0.1265 µM) of the same compound?
A: Its relative viability is 0.688.

Q: And the relative viability ([21]; first compound 0.4 µM)?
A: Its relative viability is 0.676.

Q: And the relative viability ([21]; first compound 1.265 µM)?
A: The relative viability was 0.477.

Q: What about the relative viability ([21]; first compound 4 µM) of the same compound?
A: Its relative viability is 0.289.
